biological target: Factor D (Homo sapiens (Human), UniProt P00746); test: Factor D esterolytic assay (Z-Lys-SBzl substrate, DTNB, 405 nm); type: biochemical; conditions: Z-Lys-SBzl 1.29 mM, pH 7.5, 10% DMSO, tested a minimum of three times, read-out: Measured Ki (IC50) Value for Compounds: IC50
Method in brief: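 Human Factor D ([…]) with 1.29 mM Z-Lys-SBzl in 100 mM HEPES, 500 mM NaCl, pH 7.5, 10% DMSO; substrate added immediately or after room-temperature preincubation. Released thiol reacted with DTNB, rate followed at 405 nm for 600 sec, 690 nm background subtracted. IC50 from percent inhibition versus uninhibited rate, n≥3.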

Sequence of Factor D (P00746 26-253): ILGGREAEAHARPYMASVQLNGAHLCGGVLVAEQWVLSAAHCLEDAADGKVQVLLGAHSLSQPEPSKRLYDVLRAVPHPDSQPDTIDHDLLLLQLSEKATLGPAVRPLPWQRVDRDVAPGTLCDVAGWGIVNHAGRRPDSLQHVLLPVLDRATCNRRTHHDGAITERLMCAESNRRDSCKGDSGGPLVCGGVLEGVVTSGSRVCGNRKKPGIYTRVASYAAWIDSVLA

Row | SMILES | IC50 [µM]
1 | COc1ccc(CC(=O)O)c(OCc2cc(-c3cccc(CN)c3)c3ccn(C(C)C)c3c2)c1 [Compound 356c, 2-(2-((4-(3-(aminomethyl)phenyl)-1-isopropyl-1H-indol-6-yl)methoxy)-4-methoxyphenyl)acetic acid] | < 1
2 | COc1ccc(NCc2cc3cc(COc4ccccc4CC(=O)O)cc(-c4cccc(CN)c4)c3o2)cc1 [Compound 280c, 2-(2-((7-(3-(aminomethyl)phenyl)-2-(((4-methoxyphenyl)amino)methyl)benzofuran-5-yl)methoxy)phenyl)acetic acid] | < 1
3 | COc1ccc(CC(=O)O)c(OCc2cc(-c3ccnc(CN)c3F)c3occc3c2)c1 [Compound 464d, 2-(2-((7-(2-(aminomethyl)-3-fluoropyridin-4-yl)benzofuran-5-yl)methoxy)-4-methoxyphenyl)acetic acid] | < 1
4 | NCc1cccc(-c2cc(COc3ccc(N)cc3CC(=O)O)cc3ccoc23)c1 [Compound 209c, 2-(5-amino-2-((7-(3-(aminomethyl)phenyl)benzofuran-5-yl)methoxy)phenyl)acetic acid] | < 1
5 | NCc1cccc(-c2nc(C(=O)Nc3ccccc3CC(=O)O)cc3ccoc23)c1 [Compound 28d, 2-(2-(7-(3-(aminomethyl)phenyl)furo[2,3-c]pyridine-5-carboxamido)phenyl)acetic acid] | < 1
6 | NCc1cccc(-c2cc(COc3cc4occc4cc3CC(=O)O)cc3ccoc23)c1 [Compound 298f, 2-(6-((7-(3-(aminomethyl)phenyl)benzofuran-5-yl)methoxy)benzofuran-5-yl)acetic acid] | < 1
7 | NCc1cccc(-c2cc(NC(=O)[C@@H]3CCCN3C(=O)NCc3cccc(Cl)c3F)cc3ccoc23)c1 [Compound 507f, (S)—N2-(7-(3-(aminomethyl)phenyl)benzofuran-5-yl)-N1-(3-chloro-2-fluorobenzyl)pyrrolidine-1,2-dicarboxamide] | 1 to 10
8 | CC(C)n1ccc2c(-c3cccc(CN)c3F)cc(COc3cc(F)ccc3CC(=O)O)cc21 [Compound 450b, 2-(2-((4-(3-(aminomethyl)-2-fluorophenyl)-1-isopropyl-1H-indol-6-yl)methoxy)-4-fluorophenyl)acetic acid] | < 1
9 | NCc1cccc(-c2cc(COc3c(F)cccc3CC(=O)O)cc3ccoc23)c1F [Compound 502c, 2-(2-((7-(3-(aminomethyl)-2-fluorophenyl)benzofuran-5-yl)methoxy)-3-fluorophenyl)acetic acid] | < 1
10 | CC(=O)c1cc2cc(COc3ccccc3CC(=O)O)cc(-c3cccc(CN)c3)c2o1 [Compound 252d, 2-(2-((2-acetyl-7-(3-(aminomethyl)phenyl)benzofuran-5-yl)methoxy)phenyl)acetic acid] | < 1
11 | NCc1cccc(-c2cc(COc3ccccc3CC(=O)O)cc3[nH]ccc23)c1F [Compound 58b, 2-(2-((4-(3-(aminomethyl)-2-fluorophenyl)-1H-indol-6-yl)methoxy)phenyl)acetic acid] | < 1
12 | CN(Cc1ccccc1)Cc1cc2cc(COc3ccccc3CC(=O)O)cc(-c3cccc(CN)c3)c2o1 [Compound 287c, 2-(2-((7-(3-(aminomethyl)phenyl)-2-((benzyl(methyl)amino)methyl)benzofuran-5-yl)methoxy)phenyl)acetic acid] | < 1
13 | N#Cc1ccc(OCc2cc(-c3cccc(CN)c3)c3occc3c2)c(CC(=O)O)c1 [Compound 239c, 2-(2-((7-(3-(aminomethyl)phenyl)benzofuran-5-yl)methoxy)-5-cyanophenyl)acetic acid] | < 1
14 | NCc1cccc(-c2cc(COc3cc(C(N)=O)ccc3CC(=O)O)cc3cc(CO)oc23)c1 [Compound 424d, 2-(2-((7-(3-(aminomethyl)phenyl)-2-(hydroxymethyl)benzofuran-5-yl)methoxy)-4-carbamoylphenyl)acetic acid] | < 1
15 | NCc1cccc(-c2cc(COc3ccccc3CC(=O)O)cc3cc(Cc4ccccc4)oc23)c1 [Compound 377e, 2-(2-((7-(3-(aminomethyl)phenyl)-2-benzylbenzofuran-5-yl)methoxy)phenyl)acetic acid] | < 1
16 | Cc1ccc(CC(=O)O)c(OCc2cc(-c3cccc(CN)c3F)c3occc3c2)c1 [Compound 270c, 2-(2-((7-(3-(aminomethyl)-2-fluorophenyl)benzofuran-5-yl)methoxy)-4-methylphenyl)acetic acid] | < 1
17 | N#Cc1ccc(CC(=O)O)c(OCc2cc(-c3cccc(CN)c3)c3oc(CO)cc3c2)c1 [Compound 422e, 2-(2-((7-(3-(aminomethyl)phenyl)-2-(hydroxymethyl)benzofuran-5-yl)methoxy)-4-cyanophenyl)acetic acid] | < 1
18 | C[C@H](N)c1cccc(-c2cc(COc3ccccc3CC(=O)O)cc3ccoc23)c1F [Compound 66c, (S)-2-(2-((7-(3-(1-aminoethyl)-2-fluorophenyl)benzofuran-5-yl)methoxy)phenyl)acetic acid] | < 1
19 | NCc1cccc(-c2cc(C(=O)Nc3ccccc3CC(=O)O)c3nccn3n2)c1 [Compound 27f, 2-(2-(6-(3-(aminomethyl)phenyl)imidazo[1,2-b]pyridazine-8-carboxamido)phenyl)acetic acid] | > 10
20 | Cc1ccc(CC(=O)O)c(OCc2cc(-c3ccnc(CN)c3)c3oc(F)cc3c2)c1 [Compound 526b, 2-(2-((7-(2-(aminomethyl)pyridin-4-yl)-2-fluorobenzofuran-5-yl)methoxy)-4-methylphenyl)acetic acid] | < 1
21 | NCc1cccc(-c2cc(COc3cc(C(N)=O)ccc3CC(=O)O)cc3ccoc23)c1 [Compound 238c, 2-(2-((7-(3-(aminomethyl)phenyl)benzofuran-5-yl)methoxy)-4-carbamoylphenyl)acetic acid] | < 1
22 | CC(C)n1ccc2c(-c3cccc(CN)c3)cc(COc3ccccc3CC(=O)O)cc21 [Compound 109g, 2-(2-((4-(3-(aminomethyl)phenyl)-1-isopropyl-1H-indol-6-yl)methoxy)phenyl)acetic acid] | < 1
23 | Cc1ccc(CC(=O)O)c(OCc2cc(-c3ccnc(CN)c3F)c3ccn(C(C)C)c3c2)c1 [Compound 355c, 2-(2-((4-(2-(aminomethyl)-3-fluoropyridin-4-yl)-1-isopropyl-1H-indol-6-yl)methoxy)-4-methylphenyl)acetic acid] | < 1

Second part, the compound after the results:

Row | IC50 [µM] | SMILES
24 | < 1 | Nc1noc2c(-c3cc(COc4ccccc4CC(=O)O)cc4ccoc34)cccc12 [Compound 180e, 2-(2-((7-(3-aminobenzo[d]isoxazol-7-yl)benzofuran-5-yl)methoxy)phenyl)acetic acid]
25 | < 1 | Cc1c(CN)cccc1-c1cc(COc2ccccc2CC(=O)O)cc2ccoc12 [Compound 68c, 2-(2-((7-(3-(aminomethyl)-2-methylphenyl)benzofuran-5-yl)methoxy)phenyl)acetic acid]
26 | < 1 | NCc1cccc(-c2cc(COc3cc(F)ccc3CC(=O)O)cc3cc(F)oc23)c1 [Compound 520c, 2-(2-((7-(3-(aminomethyl)phenyl)-2-fluorobenzofuran-5-yl)methoxy)-4-fluorophenyl)acetic acid]
27 | < 1 | COc1ccc(OCc2cc(-c3cccc(CN)c3F)c3ccn(C(C)C)c3c2)c(CC(=O)O)c1 [Compound 475g, 2-(2-((4-(3-(aminomethyl)-2-fluorophenyl)-1-isopropyl-1H-indol-6-yl)methoxy)-5-methoxyphenyl)acetic acid]
28 | < 1 | Cc1ccc(CC(=O)O)c(OCc2cc(-c3cccc(CN)c3F)c3ccn(C)c3c2)c1 [Compound 359b, 2-(2-((4-(3-(aminomethyl)-2-fluorophenyl)-1-methyl-1H-indol-6-yl)methoxy)-4-methylphenyl)acetic acid]
29 | < 1 | CCCc1cc2cc(COc3ccccc3CC(=O)O)cc(-c3ccnc(CN)c3)c2o1 [Compound 189c, 2-(2-((7-(2-(aminomethyl)pyridin-4-yl)-2-propylbenzofuran-5-yl)methoxy)phenyl)acetic acid]
30 | < 1 | CC(C)n1ccc2c(-c3cccc(CN)c3)cc(COc3cc(F)ccc3CC(=O)O)cc21 [Compound 449c, 2-(2-((4-(3-(aminomethyl)phenyl)-1-isopropyl-1H-indol-6-yl)methoxy)-4-fluorophenyl)acetic acid]
31 | < 1 | Cn1cc2c(-c3cccc(CN)c3F)cc(COc3ccccc3CC(=O)O)cc2n1 [Compound 129e, 2-(2-((4-(3-(aminomethyl)-2-fluorophenyl)-2-methyl-2H-indazol-6-yl)methoxy)phenyl)acetic acid]
32 | < 1 | Cc1coc2c(-c3cccc(CN)c3F)cc(COc3ccccc3CC(=O)O)cc12 [Compound 383b, 2-(2-((7-(3-(aminomethyl)-2-fluorophenyl)-3-methylbenzofuran-5-yl)methoxy)phenyl)acetic acid]
33 | < 1 | Cc1oc2c(-c3cccc(CN)c3)cc(COc3ccccc3CC(=O)O)cc2c1C [Compound 333g, 2-(2-((7-(3-(aminomethyl)phenyl)-2,3-dimethylbenzofuran-5-yl)methoxy)phenyl)acetic acid]
34 | < 1 | NCc1cccc(-c2c(F)c(COc3ccccc3CC(=O)O)cc3ccoc23)c1F [Compound 516c, 2-(2-((7-(3-(aminomethyl)-2-fluorophenyl)-6-fluorobenzofuran-5-yl)methoxy)phenyl)acetic acid]
35 | < 1 | NCc1cccc(-c2cc(COc3ccc(C4CC4)cc3CC(=O)O)cc3ccoc23)c1 [Compound 130g, 2-(2-((7-(3-(aminomethyl)phenyl)benzofuran-5-yl)methoxy)-5-cyclopropylphenyl)acetic acid]
36 | > 10 | NCc1cccc(-c2nc(C(=O)Nc3ccoc3CC(=O)O)c3cccn3n2)c1F [Compound 143g, 2-(3-(2-(3-(aminomethyl)-2-fluorophenyl)pyrrolo[2,1-f][1,2,4]triazine-4-carboxamido)furan-2-yl)acetic acid]
